From PubChem BioAssay AID330 (DTP/NCI, 2004)
Several values for one entry are separate records, joined by “and”; a condition that tells them apart may be missing. Equal values may be shown once. Toxic doses and inconclusive results are not listed.

System: P388 leukemia ip, CD2F1 mice, survival T/C
Assay: NCI In Vivo Anticancer Drug Screen. Data for tumor model P388 Leukemia (intraperitoneal) in CD2F1 (CDF1) mice
Conditions: endpoint: median survival time, higher = longer survival
Summary of the method: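 Mice carrying the transplanted tumor received test compound or vehicle. Survival was recorded in each group, and the value is the treated-group measurement divided by that of the vehicle-treated control group.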

[1] = dose: 50.0 mg/kg/injection, schedule: Q01DX009 (ip), vehicle: Klucel (hydroxypropylcellulose) (HPC)
[2] = dose: 100.0 mg/kg/injection, schedule: Q01DX009 (ip), vehicle: Klucel (hydroxypropylcellulose) (HPC)
[3] = dose: 50.0 mg/kg/injection, schedule: Q01DX005 (ip), vehicle: saline with Tween-80
[4] = dose: 100.0 mg/kg/injection, schedule: Q01DX005 (ip), vehicle: saline with Tween-80
[5] = dose: 200.0 mg/kg/injection, schedule: Q01DX005 (ip), vehicle: saline with Tween-80
[6] = dose: 200.0 mg/kg/injection, schedule: Q01DX009 (ip), vehicle: Klucel (hydroxypropylcellulose) (HPC)
[7] = dose: 60.0 mg/kg/injection, schedule: Q01DX005 (ip), vehicle: saline with Tween-80
[8] = dose: 120.0 mg/kg/injection, schedule: Q01DX005 (ip), vehicle: saline with Tween-80
[9] = dose: 240.0 mg/kg/injection, schedule: Q01DX005 (ip), vehicle: saline with Tween-80

`CCNc1cc(N)[n+](CC)c2n[nH]c(N)c12` was tested, and the T/C (dose: 50.0 mg/kg/injection, schedule: Q01DX005 (ip), vehicle: saline) was 112 % of control and the T/C (dose: 100.0 mg/kg/injection, schedule: Q01DX005 (ip), vehicle: saline) was 111 % of control.

With `Nc1nc(-c2ccc([N+](=O)[O-])cc2)cc(-c2cc(-c3ccc([N+](=O)[O-])cc3)nc(N)n2)n1` the T/C (dose: 60.0 mg/kg/injection, schedule: Q01DX005 (ip), vehicle: Klucel (hydroxypropylcellulose) (HPC)) was 87 % of control, the T/C (dose: 120.0 mg/kg/injection, schedule: Q01DX005 (ip), vehicle: Klucel (hydroxypropylcellulose) (HPC)) was 89 % of control and the T/C (dose: 240.0 mg/kg/injection, schedule: Q01DX005 (ip), vehicle: Klucel (hydroxypropylcellulose) (HPC)) was 94 % of control.

In the case of `NC(=Nc1ccccc1)SCCCCCCSC(N)=Nc1ccccc1`, the T/C (dose: 25.0 mg/kg/injection, schedule: Q01DX009 (ip), vehicle: Klucel (hydroxypropylcellulose) (HPC)) is reported as 100 % of control, the T/C [1] is reported as 102 % of control and the T/C [2] is reported as 100 % of control.

For `CCOC(=O)CC(=O)c1sc(Nc2ccccc2)c(C(N)=O)c1N`, the T/C [3] was 100 % of control, the T/C [4] was 94 % of control and the T/C [5] was 94 % of control.

`CSc1nc(N)c(C(=O)Nc2cccc3ccccc23)s1` was tested, and the T/C [1] was 100 % of control, the T/C [2] was 97 % of control and the T/C [6] was 97 % of control.

With `CCc1c2cc3c(cc2cc2c4cc5c(cc4cc[n+]12)OCO5)OCO3` (tested in a mixture with another compound) the T/C (dose: 0.5 mg/kg/injection, schedule: Q01DX009 (ip), vehicle: Klucel (hydroxypropylcellulose) (HPC)) was 117 % of control, the T/C (dose: 1.0 mg/kg/injection, schedule: Q01DX009 (ip), vehicle: Klucel (hydroxypropylcellulose) (HPC)) was 121 % of control and the T/C (dose: 5.0 mg/kg/injection, schedule: Q01DX009 (ip), vehicle: Klucel (hydroxypropylcellulose) (HPC)) was 153 % of control and 174 % of control.

In the case of `Nc1cc(N2C(=O)c3ccccc3C2=O)ccc1Cl`, the T/C [3] is reported as 109 % of control, the T/C [4] is reported as 109 % of control and the T/C [5] is reported as 100 % of control.

`COc1cc2c(cc1OC)[Se](Br)(Br)c1cc(OC)c(OC)cc1[Se]2` was tested, and the T/C [7] was 107 % of control, the T/C [8] was 98 % of control and the T/C [9] was 100 % of control.

With `C=C1CCC2C(C)(CO)C(O)CCC2(C)C1CCC1=CCOC1=O` (configuration not stated) the T/C (dose: 11.0 mg/kg/injection, schedule: Q01DX005 (ip), vehicle: Klucel (hydroxypropylcellulose) (HPC)) was 110 % of control, the T/C (dose: 22.0 mg/kg/injection, schedule: Q01DX005 (ip), vehicle: Klucel (hydroxypropylcellulose) (HPC)) was 99 % of control and the T/C (dose: 44.0 mg/kg/injection, schedule: Q01DX005 (ip), vehicle: Klucel (hydroxypropylcellulose) (HPC)) was 99 % of control. The T/C (dose: 88.0 mg/kg/injection, schedule: Q01DX005 (ip), vehicle: Klucel (hydroxypropylcellulose) (HPC)) was 97 % of control.

For `CC(=O)c1c(OCC(O)CN(CCO)CCO)ccc2c(C)cc(=O)oc12` (configuration not stated), the T/C [3] was 107 % of control, the T/C [4] was 104 % of control and the T/C [5] was 108 % of control.

In the case of `CC(=O)Nc1ccc(C(=O)C(C)Cl)cc1` (configuration not stated), the T/C [1] is reported as 100 % of control and 104 % of control and 105 % of control, the T/C [2] is reported as 105 % of control and 117 % of control and 89 % of control and the T/C [6] is reported as 99 % of control and 117 % of control and 123 % of control. The T/C (dose: 400.0 mg/kg/injection, schedule: Q01DX009 (ip), vehicle: Klucel (hydroxypropylcellulose) (HPC)) was 105 % of control.

In the case of `C[n+]1ccc2ccccc2c1C#N`, the T/C (dose: 12.5 mg/kg/injection, schedule: Q04DX003 (ip), vehicle: saline) is reported as 106 % of control and the T/C (dose: 25.0 mg/kg/injection, schedule: Q04DX003 (ip), vehicle: saline) is reported as 98 % of control.

For `Cn1c(N)nc2c(nc(OCc3ccccc3)n2C2OC(CO)C(O)C2O)c1=O` (configuration not stated), the T/C [7] was 100 % of control, the T/C [8] was 94 % of control and the T/C [9] was 103 % of control.

With `CCOC(=O)C1C/C(=N\OC(C)=O)c2ccc(OC)c(OC)c2C1` (configuration not stated) the T/C (dose: 12.5 mg/kg/injection, schedule: Q01DX009 (ip), vehicle: other) was 110 % of control, the T/C (dose: 25.0 mg/kg/injection, schedule: Q01DX009 (ip), vehicle: other) was 101 % of control and the T/C (dose: 50.0 mg/kg/injection, schedule: Q01DX009 (ip), vehicle: other) was 98 % of control. The T/C (dose: 100.0 mg/kg/injection, schedule: Q01DX009 (ip), vehicle: other) was 87 % of control and the T/C (dose: 200.0 mg/kg/injection, schedule: Q01DX009 (ip), vehicle: other) was 88 % of control.

`CCOC(=O)c1c(Br)c2c3ccccc3c3ccccc3n2c1C` was tested, and the T/C [7] was 100 % of control, the T/C [8] was 111 % of control and the T/C [9] was 100 % of control.
